Experimental data from patent US20160354300A1, “Low Viscosity Hair Care Composition” (The Procter & Gamble Company, priority 2015, published 2016).
Counter-ions that a name gives are not always drawn.

What was measured:
[1] = Kinematic viscosity at 40 C of surfactant base formulation with added agent (Cannon viscometer); type: physicochemical; conditions: for Lowest viscosity achieved (cSt): Table 1, base formulation 24% sodium undecyl sulfate, 6% lauramidopropyl betaine, 1.6% perfume, agent at 2%, 4%, 6%, 8%, 40° C.; for Kinematic viscosity at 40 C. [cSt], 2% oil: agent added at 2% to base formulation; for Kinematic viscosity at 40 C. [cSt], 4% oil: agent added at 4% to base formulation; for Kinematic viscosity at 40 C. [cSt], 6% oil: agent added at 6% to base formulation; for Kinematic viscosity at 40 C. [cSt], 8% oil: agent added at 8% to base formulation
Description: Referring to Tables 1 and 2, the base formulations were made by mixing 1.6% perfume, 24% sodium undecyl sulfate (CAS#1072-24-8) active, 6% lauramidopropyl betaine (CAS#4292-10-8) active and 60.4% deionized water which leaves 8% unfilled for the addition of a viscosity reducing agent (the balance being filled in by distilled water). For all compositions, the surfactant, water and additives including viscosity reducing agents were expected to be in a single phase.
The agents from Tables 1 and 2 were added to the base formulation at a percentage of 2%, 4%, 6%, and 8% into the above surfactant solution. The subsequent formulations were vortexed and put into oven at 60° C. overnight to form homogeneous solution. The viscosities of the formulations were measured with calibrated viscometers (Size 200/350/450) from Cannon Instrument Company (2139 High Tech Road, State College, Pa., USA, 16803).
After the equilibration, the formulations were drawn to reach the starting mark with a rubber suction bulb and the flow time between the starting mark and end mark was recorded for calculation. Each formulation was measured three times to calculate average and standard deviation. Between samples, viscometer was cleaned with water and acetone to rinse off residual.
Viscosity values were calculated based on the equation:
Viscosity (mm^2/s·(cSt))=Time (s)*Constant (mm^2/s^2·(cSt/s))
The time in the above equation is the flow time recorded in the experiment and the constant numbers for each calibrated viscometer were obtained from the manuals. […]
The viscosities of the formulations are measured with calibrated viscometers (Size 200/350/450) from Cannon Instrument Company (2139 High Tech Road, State College, Pa., USA, 16803). Prior to the measurement, the formulations are equilibrated in the viscometer reservoir for 30 min at 40° C. in water bath to ensure a homogeneous temperature is reached in the system. […]

[2] = Visual cloudiness of surfactant formulation with added agent after 20:1 dilution with water; type: physicochemical; parameters: key: Samples that appeared cloudy (turbid) within less than a day were noted as cloudy (“Yes”); Samples that did not appear cloudy (turbid) within less than a day were noted as not cloudy (“No”); conditions: 0.5 g formula, 10 ml deionized water; for Cloudy at 1:20 dilution at 2%, 4%, and/or 6%: Table 3, visual, within less than a day; for Added at 2%: cloudy at 20:1 dilution: agent at 2%; for Added at 4%: cloudy at 20:1 dilution: agent at 4%; for Added at 6%: cloudy at 20:1 dilution: agent at 6%; for Added at 8%: cloudy at 20:1 dilution: agent at 8%
Description: Now referring to Tables 3 and 4, the following surfactant formulations were made by mixing 1.6% perfume, 24% sodium undecyl sulfate (CAS#1072-24-8) active, 6% lauramidopropyl betaine (CAS#4292-10-8) active, and 60.4% deionized water which leaves 8% unfilled for the addition of the listed agents (the balance being filled in by distilled water). The agents were added at a percentage of 2%, 4%, 6%, and 8% into the above surfactant formulation. The resulting formulations were vortexed and put into oven at 60° C. overnight to form homogeneous solution. For all formulations, the surfactant, water and additives, including the added agents, were expected to be in a single phase.
The resulting formulations were weighed out in a scintillation vial combined with 10 ml of water to achieve a representative dilution during use: 0.5 g formula, 10 ml deionized water for 20:1 dilution. After the combination of the ingredients, the vial was vigorously shaken by hand and the samples were visually inspected by looking at the solution against a dark background. Samples that appeared cloudy (turbid) within less than a day were noted as cloudy (“Yes”). […] Samples that appeared cloudy at the 20:1 dilution for any of the 2%, 4% or 6% concentration of oil may be most desirable by requiring a limited amount of the agent to be added, limiting cost and trade-offs associated with higher levels.
The appearance of a cloudy formulation at 1:20 dilution at 2%, 4%, and/or 6% can signal improved deposition of surfactant soluble active agents during consumer use.

SMILES | Lowest viscosity achieved (cSt) [1] [cSt] | Kinematic viscosity at 40 C. [cSt], 2% oil [1] [cSt] | Kinematic viscosity at 40 C. [cSt], 4% oil [1] [cSt] | Cloudy at 1:20 dilution at 2%, 4%, and/or 6% [2] | Added at 2%: cloudy at 20:1 dilution [2] | Added at 4%: cloudy at 20:1 dilution [2] | Kinematic viscosity at 40 C. [cSt], 6% oil [1] [cSt] | Kinematic viscosity at 40 C. [cSt], 8% oil [1] [cSt] | Added at 6%: cloudy at 20:1 dilution [2] | Added at 8%: cloudy at 20:1 dilution [2]
CC12CCC(CC1=O)C2(C)C (centres unmarked) [Camphor Gum] | 127 | 365.8 | 127.2 | – | – | – | – | – | – | –
CC(C)COC(=O)c1ccccc1O [Iso Butyl Salicylate] | 409 | 408.7 | – | No | No | No | – | – | – | –
CC(C)CC=C(C=O)C(C)C [2-Isopropyl-5-methyl-2-hexenal] | 332 | 332.3 | – | No | No | No | – | – | – | –
C=C(C)[C@H]1CC=C(C)CC1 [Limonene] | 86 | 366.5 | 166.8 | – | – | – | 97.5 | 86.4 | – | –
CCCCCC(=O)OCC(C)C [Isobutyl Hexanoate] | 109 | 390.0 | 177.9 | No | No | No | 140.9 | 109.4 | No | Yes
CC1=CCC(C(C)C)=CC1 [gamma-Terpinene] | 32 | 238.0 | 65.0 | Yes | No | No | 31.7 | – | Yes | Yes
CCCCCCC1C(=O)CCC1C(=O)OC (centres unmarked) [Dihyro Iso Jasmonate] | 119 | 334.9 | 119.1 | No | No | – | – | – | – | –
CC(=O)OCCC(C)CCCC(C)C (centres unmarked) [3,7-Dimethyloctyl Acetate] | 446 | 445.7 | – | No | No | – | – | – | – | –
CCO [Ethanol] | 29 | 205.6 | 111.0 | – | – | – | 50.8 | 29.2 | – | –
COC(C)(C)C1CC=C(C)CC1 (centres unmarked) [Orange Flower Ether] | 419 | 552.2 | 418.8 | – | – | – | – | – | – | –
CCC(CC(C)CC)=NO (centres unmarked) [5-Methyl-3-Heptanone Oxime] | 246 | 246.3 | – | – | – | – | – | – | – | –
C=CC(C)(CCC=C(C)C)OC(=O)C(C)C (centres unmarked) [Linalyl Iso Butyrate] | 38 | 223.4 | 73.0 | Yes | No | No | 37.7 | 39.9 | Yes | Yes
CCCCCCCCCCCCCC(=O)OC(C)C [Iso Propyl Myristate] | 30 | 234.2 | 53.7 | Yes | No | No | 30.4 | 45.0 | Yes | Yes
CC(CC=O)CCCC(C)(C)O (centres unmarked) [Hydroxycitronellal] | 34 | 310.8 | 145.4 | – | – | – | 65.9 | 34.1 | – | –
CC12CCC(CC1)C(C)(C)O2 [Eucalyptol] | 203 | 527.3 | 292.9 | No | No | No | 203.1 | – | No | –
CCOC(=O)CC(O)(CC(=O)OCC)C(=O)OCC [Triethyl Citrate] | 41 | 269.4 | 136.6 | – | – | – | 66.6 | 40.5 | – | –
CC(=O)OCCC(C)CCC=C(C)C (centres unmarked) [Citronellyl Acetate] | 363 | 362.7 | – | No | No | – | – | – | – | –
CC(C)=CCC/C(C)=C/COC(=O)Cc1ccccc1 [Geranyl Phenyl Acetate] | 34 | 224.0 | 76.0 | Yes | Yes | Yes | 34.3 | 36.6 | Yes | Yes
CCCCCC1(C)CCC(C)(C)C1=O (centres unmarked) [Veloutone] | 47 | 260.2 | 129.1 | Yes | No | No | 56.3 | 47.3 | Yes | Yes
CC(C)CCOC(=O)c1ccccc1O [Isoamyl Salicylate] | 193 | 460.3 | 193.2 | Yes | No | Yes | – | – | – | –
CCC(=O)O[C@@H]1C[C@H]2CC[C@]1(C)C2(C)C (racemic) [Iso Bornyl Propionate] | 463 | 463.1 | – | – | – | – | – | – | – | –
CCCCCCCC(OC)OC [1,1-Dimethoxyoctane] | 308 | 500.7 | 308.1 | – | – | – | – | – | – | –
CC(=O)CCc1ccc(O)cc1 [Raspberry Ketone] | 33 | 151.9 | 107.4 | – | – | – | 54.0 | 33.0 | – | –
